Read-outs that look alike come from different tables or passages of the source.
Assays:
[1] = Particle size distribution, Malvern Mastersizer 3000 laser particle size analyzer; type: physicochemical; conditions: aqueous dispersing medium
Experimental: Submicron sized metaxalone drug particles were prepared by dry milling metaxalone drug substance (40%) together with lactose monohydrate and sodium lauryl sulfate in an attritor mill containing stainless steel grinding media. The total batch size was approximately 1 kg. Milled powder was discharged out the bottom of the mill and collected for analysis and further processing. […] Table 1, below, includes size data for the milled and unmilled metaxalone.

[2] = cited from earlier work

D[4, 3] [1]: 47.3 μm
Dv10 [1]: 16.0 μm
Dv50 [1]: 43.3 μm
Dv90 [1]: 81.8 μm
Specific Surface Area [1]: 199.7 m^2/kg
Compound: Cc1cc(C)cc(OCC2CNC(=O)O2)c1 (stereo not shown) [Metaxalone]
solubility ([2]; 96% ethanol): soluble
solubility ([2]; chloroform): freely soluble
solubility ([2]; ether): practically insoluble
solubility ([2]; methanol): soluble
solubility ([2]; water): practically insoluble
